Measured values taken from patent US7915239B2, “Process for treating lameness administration of a bisphosphonic acid derivative” (Ceva Sante Animale, priority 1998, dated 2011).

What was measured:
Assay type in all cases: in vivo
[1] = test system: lameness during navicular disease (podotrochlear syndrome); test: Clinical study in horses with lameness during navicular disease (podotrochlear syndrome); details: for percentage of animals in category Average / percentage of animals in category Favourable / percentage of animals in category Mediocre / percentage of animals in category Poor / percentage of animals in category Very favourable: 0.1 mg/kg i.v. weekly for 6 to 10 weeks
Method: A clinical study was carried out to evaluate the effects of a treatment with disodium tiludronate on horses which develop lameness during navicular disease (also known as podotrochlear syndrome). The study was carried out on 24 horses, the diagnosis of the navicular disease causing lameness being based on the following criteria: • local signs in the palmar region: heat, swelling, pain • functional signs of limping graded on a scale from 0 (no sign of limping) to 4 (trouble in bearing weight when at rest and/or in motion and difficulty in moving around) • a functional test of locomotion after flexing the palmar region, also assessed on a scale from 0 (locomotion not changed by flexure) to 4 (start of suppression of bearing weight) • a radiological examination to assess radiological signs in the palmar region qualitatively. To be included, the animal had to show no signs or lesions of septic arthritis, or any fractures of the bones in the palmar region. Also, it needed to have not received an injection for anti-inflammatory treatment in the joints of the palmar region. The wearing of an orthopaedic shoe was not contra-indicated since most of the animals had been […] for several weeks and were already wearing a shoe of this type. All the animals received, as a single treatment, disodium tiludronate in the form of an injectable solution administered intravenously at a dose of 0.1 mg/kg, at a weekly administration rate for 6 to 10 weeks. The first day of treatment corresponds to D0. To assess the effects of the treatment, the animals were reviewed 1 month after D0 (M1), 2 months after D0 (M2) and 6 months after D0 (M6). The effects of the treatment were assessed with regard to: • the local signs, the functional signs and the test of locomotion after flexure as defined during inclusion of the animal into the test • a radiological examination to assess the change in the radiological signs • an assessment of the resumption of the animal's sporting activity. […] The table below summarizes the effects of the treatment (expressed as a percentage of animals present in each category): […]

[2] = test system: lameness associated with bone lesions during osteochondrosis; test: Clinical study in horses with lameness associated with sub-chondral cysts during osteochondrosis; details: procedure as Example 1
Method: The study was carried out on 24 horses, the diagnosis of the navicular disease causing lameness being based on the following criteria: • local signs in the palmar region: heat, swelling, pain • functional signs of limping graded on a scale from 0 (no sign of limping) to 4 (trouble in bearing weight when at rest and/or in motion and difficulty in moving around) • a functional test of locomotion after flexing the palmar region, also assessed on a scale from 0 (locomotion not changed by flexure) to 4 (start of suppression of bearing weight) • a radiological examination to assess radiological signs in the palmar region qualitatively. All the animals received, as a single treatment, disodium tiludronate in the form of an injectable solution administered intravenously at a dose of 0.1 mg/kg, at a weekly administration rate for 6 to 10 weeks. The first day of treatment corresponds to D0. To assess the effects of the treatment, the animals were reviewed 1 month after D0 (M1), 2 months after D0 (M2) and 6 months after D0 (M6). The effects of the treatment were assessed with regard to: • the local signs, the functional signs and the test of locomotion after flexure as defined during inclusion of the animal into the test • a radiological examination to assess the change in the radiological signs • an assessment of the resumption of the animal's sporting activity. […] A clinical study was carried out to evaluate the effects of a treatment with disodium tiludronate on horses which develop lameness associated with bone lesions in the form of sub-chondral cysts during osteochondrosis. The test procedure and the clinical monitoring of the animals were the same as those described in Example 1, except that the local, functional and radiological signs were evaluated in the joints affected by osteochondrosis. 5 horses were included in this test. The results obtained were as follows (expressed as a percentage of animals present in each category): […]

[3] = test system: lameness during enthesopathy of the insertion of the tendons and the ligaments; test: Clinical study in horses with lameness during enthesopathy of the insertion of the tendons and the ligaments; details: procedure as Example 1
Method: The study was carried out on 24 horses, the diagnosis of the navicular disease causing lameness being based on the following criteria: • local signs in the palmar region: heat, swelling, pain • functional signs of limping graded on a scale from 0 (no sign of limping) to 4 (trouble in bearing weight when at rest and/or in motion and difficulty in moving around) • a functional test of locomotion after flexing the palmar region, also assessed on a scale from 0 (locomotion not changed by flexure) to 4 (start of suppression of bearing weight) • a radiological examination to assess radiological signs in the palmar region qualitatively. All the animals received, as a single treatment, disodium tiludronate in the form of an injectable solution administered intravenously at a dose of 0.1 mg/kg, at a weekly administration rate for 6 to 10 weeks. The first day of treatment corresponds to D0. To assess the effects of the treatment, the animals were reviewed 1 month after D0 (M1), 2 months after D0 (M2) and 6 months after D0 (M6). The effects of the treatment were assessed with regard to: • the local signs, the functional signs and the test of locomotion after flexure as defined during inclusion of the animal into the test • a radiological examination to assess the change in the radiological signs • an assessment of the resumption of the animal's sporting activity. […] A clinical study was carried out to evaluate the effects of a treatment with disodium tiludronate on horses which develop lameness during enthesopathy of the insertion of the tendons and the ligaments. The test procedure and the clinical monitoring of the animals were the same as those described in Example 1, except that the local, functional and radiological signs were evaluated in the region of the tendon or ligament insertions at the source of lameness. 6 horses were included in this test. The results obtained were as follows (expressed as a percentage of animals present in each category): […]

[4] = test system: lameness during bone spavin; test: Clinical study in horses with lameness during bone spavin (osteoarthrosis of the distal stage of the tarsus); details: for percentage of animals in category Average / percentage of animals in category Favourable / percentage of animals in category Mediocre / percentage of animals in category Poor / percentage of animals in category Very favourable: procedure as Example 1
Method: The study was carried out on 24 horses, the diagnosis of the navicular disease causing lameness being based on the following criteria: • local signs in the palmar region: heat, swelling, pain • functional signs of limping graded on a scale from 0 (no sign of limping) to 4 (trouble in bearing weight when at rest and/or in motion and difficulty in moving around) • a functional test of locomotion after flexing the palmar region, also assessed on a scale from 0 (locomotion not changed by flexure) to 4 (start of suppression of bearing weight) • a radiological examination to assess radiological signs in the palmar region qualitatively.
All the animals received, as a single treatment, disodium tiludronate in the form of an injectable solution administered intravenously at a dose of 0.1 mg/kg, at a weekly administration rate for 6 to 10 weeks. The first day of treatment corresponds to D0.
To assess the effects of the treatment, the animals were reviewed 1 month after D0 (M1), 2 months after D0 (M2) and 6 months after D0 (M6). The effects of the treatment were assessed with regard to: • the local signs, the functional signs and the test of locomotion after flexure as defined during inclusion of the animal into the test • a radiological examination to assess the change in the radiological signs • an assessment of the resumption of the animal's sporting activity.
A clinical study was carried out in order to evaluate the effects of a treatment with disodium tiludronate on horses which develop lameness during bone spavin (which is osteoarthrosis of the distal stage of the tarsus).
The test procedure and the clinical monitoring of the animals were the same as those described in Example 1, except that the local, functional and radiological signs were assessed in the region of the hock.
5 horses were included in this test.
The results obtained were as follows (expressed as a percentage of animals present in each category): […]

[5] = Examination at M1 (1 month after D0)
[6] = Examination at M2 (2 months after D0)
[7] = Examination at M6 (6 months after D0)

O=P(O)(O)C(Sc1ccc(Cl)cc1)P(=O)(O)O [disodium tiludronate, 4-chlorophenylthiomethylenebisphosphonic acid]
percentage of animals in category Average [1, 5]: 38% | percentage of animals in category Favourable [1, 5]: 46% | percentage of animals in category Mediocre [1, 5]: 4% | percentage of animals in category Poor [1, 5]: 4% | percentage of animals in category Very favourable [1, 5]: 8% | percentage of animals in category Average [1, 6]: 26% | percentage of animals in category Favourable [1, 6]: 43% | percentage of animals in category Mediocre [1, 6]: 5% | percentage of animals in category Poor [1, 6]: 0% | percentage of animals in category Very favourable [1, 6]: 26% | percentage of animals in category Average [1, 7]: 27% | percentage of animals in category Favourable [1, 7]: 46% | percentage of animals in category Mediocre [1, 7]: 9% | percentage of animals in category Poor [1, 7]: 0% | percentage of animals in category Very favourable [1, 7]: 18% | time at which the benefit of the treatment is optimal ([1]; after administration of the treatment is started): 2 months | share of animals with complete recovery ([1]; at the end of administration of the treatment): a quarter of the animals | radiological examination of the palmar region ([1]; pathological radiological signs): did not reveal any change in kinetics of the pathological radiological signs | percentage of animals in category Average [2, 5]: 40% | percentage of animals in category Favourable [2, 5]: 0% | percentage of animals in category Mediocre [2, 5]: 0% | percentage of animals in category Poor [2, 5]: 20% | percentage of animals in category Very favourable [2, 5]: 40% | percentage of animals in category Average [2, 6]: 20% | percentage of animals in category Favourable [2, 6]: 40% | percentage of animals in category Mediocre [2, 6]: 0% | percentage of animals in category Poor [2, 6]: 20% | percentage of animals in category Very favourable [2, 6]: 20% | percentage of animals in category Average [2, 7]: 0% | percentage of animals in category Favourable [2, 7]: 0% | percentage of animals in category Mediocre [2, 7]: 40% | percentage of animals in category Poor [2, 7]: 0% | percentage of animals in category Very favourable [2, 7]: 60% | percentage of animals in category Average [3, 5]: 33% | percentage of animals in category Favourable [3, 5]: 50% | percentage of animals in category Mediocre [3, 5]: 17% | percentage of animals in category Poor [3, 5]: 0% | percentage of animals in category Very favourable [3, 5]: 0% | percentage of animals in category Average [3, 6]: 33% | percentage of animals in category Favourable [3, 6]: 67% | percentage of animals in category Mediocre [3, 6]: 0% | percentage of animals in category Poor [3, 6]: 0% | percentage of animals in category Very favourable [3, 6]: 0% | percentage of animals in category Average [3, 7]: 0% | percentage of animals in category Favourable [3, 7]: 40% | percentage of animals in category Mediocre [3, 7]: 20% | percentage of animals in category Poor [3, 7]: 0% | percentage of animals in category Very favourable [3, 7]: 40% | percentage of animals in category Average [4, 5]: 60% | percentage of animals in category Favourable [4, 5]: 40% | percentage of animals in category Mediocre [4, 5]: 0% | percentage of animals in category Poor [4, 5]: 0% | percentage of animals in category Very favourable [4, 5]: 0% | percentage of animals in category Average [4, 6]: 0% | percentage of animals in category Favourable [4, 6]: 60% | percentage of animals in category Mediocre [4, 6]: 0% | percentage of animals in category Poor [4, 6]: 0% | percentage of animals in category Very favourable [4, 6]: 40% | percentage of animals in category Average [4, 7]: 20% | percentage of animals in category Favourable [4, 7]: 20% | percentage of animals in category Mediocre [4, 7]: 0% | percentage of animals in category Poor [4, 7]: 20% | percentage of animals in category Very favourable [4, 7]: 40% | change in lameness induced by bone spavin after treatment ([4]; after treatment): favourable to very favourable in most of the animals
